In the NIST ThermoML archive (doi:10.1016/j.jct.2015.09.036):

Assays:
[1] = 303.15 K, 100 kPa, Liquid; for viscosity: Capillary tube (Ostwald / Ubbelohde) method; for speed of sound: Frequency=2 MHz, Linear variable-path acoustic interferometer; for mass density: Pycnometric method
[2] = xn = mol fraction of the nth substance listed; details: 303.15 K, 100 kPa, Liquid; for viscosity: Capillary tube (Ostwald / Ubbelohde) method; for speed of sound: Frequency=2 MHz, Linear variable-path acoustic interferometer; for mass density: Pycnometric method

Cc1ccccc1 [toluene]
[1]
Details | mass density [kg/m3] | speed of sound [m/s] | viscosity [mPa·s]
– | 856.2 | 1282.6 | 0.528

O=[N+]([O-])c1ccccc1 [nitrobenzene] + CCCCC(CC)COP(=O)(O)OCC(CC)CCCC
[2], x2 = 0
Details | mass density [kg/m3] | speed of sound [m/s] | viscosity [mPa·s]
– | 1193.6 | 1445.6 | 1.611

Cc1ccccc1 [toluene] + CCCCC(CC)COP(=O)(O)OCC(CC)CCCC
[2], x2 = 0
Details | mass density [kg/m3] | speed of sound [m/s] | viscosity [mPa·s]
– | 856.2 | 1282.6 | 0.528

Clc1ccccc1 [chlorobenzene] + CCCCC(CC)COP(=O)(O)OCC(CC)CCCC
[2], x2 = 0
Details | mass density [kg/m3] | speed of sound [m/s] | viscosity [mPa·s]
– | 1095.2 | 1251.8 | 0.724

Clc1ccccc1 [chlorobenzene]
[1]
Details | mass density [kg/m3] | speed of sound [m/s] | viscosity [mPa·s]
– | 1095.2 | 1251.8 | 0.724

O=[N+]([O-])c1ccccc1 [nitrobenzene]
[1]
Details | mass density [kg/m3] | speed of sound [m/s] | viscosity [mPa·s]
– | 1193.6 | 1445.6 | 1.611

CCCCC(CC)COP(=O)(O)OCC(CC)CCCC (configuration not stated) [bis(2-ethylhexyl) hydrogen phosphate] + Clc1ccccc1
[2]
Details | mass density [kg/m3] | speed of sound [m/s] | viscosity [mPa·s]
x1 = 0.0568 | 1075.2 | 1253.2 | 0.917
x1 = 0.1474 | 1051.9 | 1255.5 | 1.535
x1 = 0.2143 | 1038.4 | 1257.7 | 1.859
x1 = 0.3498 | 1017.9 | 1262.8 | 2.804
x1 = 0.4357 | 1007.6 | 1266.4 | 3.777
x1 = 0.4788 | 1002.9 | 1268.4 | 4.502
x1 = 0.5322 | 997.1 | 1270.8 | 5.526
x1 = 0.6285 | 987.8 | 1275.4 | 7.879
x1 = 0.7146 | 980.4 | 1279.5 | 10.49
x1 = 0.7704 | 975.8 | 1282.2 | 12.21
x1 = 0.8433 | 970.4 | 1285.7 | 14.56
x1 = 0.8789 | 968 | 1287.3 | 15.86
x1 = 0.9501 | 963.8 | 1290.8 | 17.84
x1 = 1 | 961.3 | 1293 | 19.29

CCCCC(CC)COP(=O)(O)OCC(CC)CCCC (configuration not stated) [bis(2-ethylhexyl) hydrogen phosphate] + Cc1ccccc1
[2]
Details | mass density [kg/m3] | speed of sound [m/s] | viscosity [mPa·s]
x1 = 0.0896 | 884.9 | 1283.7 | 0.722
x1 = 0.1624 | 902.1 | 1284.5 | 0.907
x1 = 0.2077 | 910.5 | 1285.1 | 1.086
x1 = 0.2898 | 923.1 | 1286 | 1.576
x1 = 0.3279 | 928.8 | 1286.6 | 1.914
x1 = 0.4205 | 937.6 | 1287.4 | 3.098
x1 = 0.5082 | 944.5 | 1288.2 | 4.679
x1 = 0.5903 | 949.3 | 1289 | 6.432
x1 = 0.6814 | 953.3 | 1289.9 | 8.931
x1 = 0.7388 | 955.2 | 1290.5 | 10.84
x1 = 0.8105 | 957.1 | 1291.2 | 13.17
x1 = 0.8876 | 958.8 | 1291.9 | 15.68
x1 = 0.9427 | 960.1 | 1292.5 | 17.43
x1 = 1 | 961.3 | 1293 | 19.29

CCCCC(CC)COP(=O)(O)OCC(CC)CCCC (configuration not stated) [bis(2-ethylhexyl) hydrogen phosphate] + O=[N+]([O-])c1ccccc1
[2]
Details | mass density [kg/m3] | speed of sound [m/s] | viscosity [mPa·s]
x1 = 0.0912 | 1139 | 1429.5 | 2.409
x1 = 0.1743 | 1104.1 | 1415.6 | 2.925
x1 = 0.2624 | 1075.4 | 1401.5 | 3.319
x1 = 0.3698 | 1048.6 | 1385.2 | 4.274
x1 = 0.4211 | 1038.1 | 1377.5 | 4.689
x1 = 0.4779 | 1027.1 | 1369.1 | 5.585
x1 = 0.5326 | 1017.4 | 1361.1 | 6.687
x1 = 0.6102 | 1004.6 | 1349.8 | 8.662
x1 = 0.6933 | 992.8 | 1337.6 | 10.95
x1 = 0.7299 | 988.1 | 1332.2 | 11.91
x1 = 0.7867 | 981.4 | 1323.9 | 13.51
x1 = 0.8598 | 973.6 | 1313.2 | 15.51
x1 = 0.9387 | 966.2 | 1301.9 | 17.75
x1 = 1 | 961.3 | 1293 | 19.29

CCCCC(CC)COP(=O)(O)OCC(CC)CCCC (configuration not stated) [bis(2-ethylhexyl) hydrogen phosphate]
[1]
Details | mass density [kg/m3] | speed of sound [m/s] | viscosity [mPa·s]
– | 961.3 | 1293 | 19.29
